According to patent US10471025B2, “Compositions for use in treating parkinson's disease and related disorders” (Technophage, Investigação E Desenvolvimento Em …, priority 2015, dated 2019):
Like-named read-outs stand apart in the source and are kept apart here.

Tests used:
[1] = in vivo, cited from earlier work
[2] = sc; cited from earlier work
[3] = test system: 6-OHDA treated zebrafish larvae; assay: Co-administration with L-Dopa, total distance 6-OHDA larvae move; assay type: in vivo; conditions: total distance; L-Dopa 250 or 125 μM
[4] = in water; cited from earlier work
[5] = test system: 6-OHDA treated zebrafish larvae; assay: LD50 / lethality in the disease context of the zebrafish model; conditions: 6-OHDA disease-induced zebrafish larvae
[6] = test system: rat; conditions: rat, cited from earlier work
[7] = test system: 6-OHDA treated zebrafish larvae; assay: Locomotor behavior rescue (total distance moved, number of jumps) in 6-OHDA zebrafish PD model; assay type: in vivo; conditions: for Effective concentration / peak, small range plot: phenotype recovery, total distance moved
Text: To model Parkinson ̆s disease (PD), a neurotoxin 6-OHDA (6-hyroxydopamine) based method was used in zebrafish and in mice. In this model, 6-OHDA-lesions induce motor manifestations in zebrafish and in mice, such as reduced locomotor ability, and the loss of dopaminergic neurons. Based on the 6-OHDA PD zebrafish model, compounds from a small molecules library were screened for rescue of the parkinsonian phenotype (Example 1, see below).
The screen was based on both the recovery of impaired locomotor behavior and dopaminergic neuronal loss.
Values were normalized for the mean of disease state in each experiment (disease=1). Each plot contains data from 3 independent experiments with a total of 24 larvae. As a control, zebrafish were treated with only the vehicle, ascorbic acid.
For these experiments, Tubingen (TU) wild-type zebrafish, a specific strain of wild-type zebrafish, were used.

[8] = test system: 6-OHDA treated zebrafish larvae; assay: Rescue of Tyrosine hydroxylase (TH)-positive dopaminergic neurons in 6-OHDA zebrafish larvae; assay type: in vivo; conditions: for Neurorescue: TH+ neurons at optimal dose, p; for Neuroprotective effect / recovery of TH+ neurons: at the optimal concentration of each molecule
Method: The 7 candidates also were tested in terms of rescue of dopaminergic neurons positive for Tyrosine hydroxylase (Th) in the substancia nigra pars compacta of the test animals. […] Results were normalized for healthy control values (healthy control=100% of neurons). As a control, zebrafish were treated with only the vehicle, ascorbic acid. ‘6-OHDA_ represents results in zebrafish receiving no treatment.
FIGS. 6E-6G show representative Z-projections of confocal stacks of whole-mount anti-TH immunohistochemistry in 6 days post-fertilization (dpf) of zebrafish larvae (age of the fish) control (FIG. 6E), 6-OHDA (FIG. 6F), and tapentadol treated-larvae (FIG. 6G).

[9] = test system: 6-OHDA mouse model; assay: Open field test, 6-OHDA mice (Example 5); assay type: in vivo; conditions: 9 days post lesion, vs 6-OHDA group
Method: Open field testing evaluates mainly spontaneous activity. […] Four different parameters were recorded: maximum velocity (FIGS. 18A, 19A, and 20A), total distance moved (FIGS. 18B, 19B, and 20B), mean velocity (FIGS. 18C, 19C, and 20C), and latency to first reach the walls (FIGS. 18D, 19D, and 20D). All parameters were determined by the analysis of a 5 minute video, recorded 30 minutes after therapeutic administration. Values mean ě SEM (n=3-8).
For total distance moved (FIGS. 18B, 19B, and 20B) and mean velocity (FIGS. 18C, 19C, and 20C), an hour video also was analyzed for an animal per group, to evaluate the effect of the drug with time. For these analyses, a 5 minute video prior to therapeutic administration also was taken. […] Ethovision V10 system was used for making the videos for analysis.

[10] = test system: 6-OHDA treated zebrafish larvae; assay: Freezing (duration of freezing periods, light/dark stimulus) in 6-OHDA zebrafish larvae; assay type: in vivo; conditions: tapentadol 48.5, stavudine 50, nabumetone 0.91 μM; L-Dopa treatment
Method: In the zebrafish model, the locomotor impairment was measured and related with bradykinesia in patients. Tests included evaluating ‘freezing_ in response to a light/dark stimulus. 6-OHDA induced larvae had fewer freezing episodes but spent longer periods in the frozen state. In previous studies, the duration of freezing episodes has been analyzed in PD patients. […] Nonetheless, it is an inhibitor of the neuronal dopamine transporter and since 6-OHDA needs DAT to enter the neuron and induce the disease, methylphenidate may be a false positive.
As FIGS. 9B-9C show, freezing recovery was tested using 7 candidate molecules at optimal concentrations, in an exemplary experiment with n=8 fish, and methylphenidate and amantadine at 25 ? M.

[11] = test system: 6-OHDA mouse model; assay: Cylinder test, 6-OHDA mice (Example 5); assay type: in vivo; conditions: vs 6-OHDA group; daily i.p.
[12] = test system: 6-OHDA mouse model; assay: Abnormal involuntary movements, 6-OHDA mice (Example 5); assay type: in vivo; conditions: mouse, in vivo
Method: This condition results in a range of involuntary movements that can be evaluated by video tracking analyses. […] Evaluations were performed during two independent trials, 30 and 90 minutes after treatment administration. […] Nonetheless, forelimb and orofacial involuntary movements are extremely hard to detect, and reading errors occur, considering the size of the animals. Total abnormal involuntary movements are the sum of all 4 different involuntary movements evaluated and is the parameter often reported in the literature.
As FIGS. 17A-17F show, abnormal involuntary movements were evaluated using the cylinder test 28 days post injection. […] Values mean ě SEM (n=5-8).

Structure (SMILES)	Oral bioavailability ([1]; po) [%]	Half-life [1] [h]	Effective rat dose [2] [mg/kg/day]	Effect of co-administration with L-Dopa on locomotor recovery [3]	Solubility [4] [mg/ml in]	LD50 [5]	LD50 [6] [mg/kg]	Effective concentration / peak, small range plot [7] [µM]	Neurorescue [8]	Neuroprotective effect / recovery of TH+ neurons [8]	Open field: latency to first reach the walls [9]	Duration of freezing periods, recovery vs 6-OHDA treated larvae [10]	Cylinder test: number of rearings [11]	Cylinder test: percentage of animals with tremor [11]	Cylinder test: percentage of contralateral paw use [11]	Induction of abnormal involuntary movements [12]	LD50 ([6]; in vivo, po) [mg/kg]	Optimal concentration ([7]; behavioral experiments and TH+ cell counts) [µM]	Neuroprotection of TH+ neurons ([8]; where the disease is less severe (sig *), preliminary)
C#CCN[C@@H]1CCc2ccccc21 [Rasagiline]	35	1.5 to 3.5	0.8	increased effect	53	187.5 | M	300	25	confirmed P < 0.11	confirmed	–	–	–	–	–	–	–	–	–
N[C@@H](Cc1ccc(O)c(O)c1)C(=O)O [L-Dopa, Levodopa]	–	–	–	–	3.3	>5 mM	–	100	no	does not induce the recovery of TH+ neurons	did not show motor improvement	no recovery	no difference	motor recovery was observed	motor recovery was observed	induced these involuntary movements	1780	250	can be neuroprotective
